The values below come from patent publication US20240158392A1 (Janssen Biotech, Inc., priority 2021, published 2024).

The target of experiment [1] is T1, SIK2 (Homo sapiens, UniProt Q9H0K1). Briefly: SIK2 Enzymatic Assay Version 1 (ADP Glo). The format is biochemical. The note with it: enzyme 0.6 nM, 160 μM ATP and 140 μM HDAC5tide (each 2× final concentration); 30 minutes pre-incubation, 4 hours; ADPGlo luminescence; read-out: SIK2 ADP Glo IC50 (μM) (Test Example 1). A digest of the protocol:
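Room-temperature ADP-Glo luminescence assay; SIK2 added at 0.6 nM (2× final) and preincubated with compound for 30 min. Reaction stopped with ADP-Glo Reagent for 40 min, then detection reagent for at least 30 min; no-peptide (ATP-only) wells served as negative control.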

Experiment [2] has as its target T1, SIK2. The experiment is described as follows: SIK2 Enzymatic Assay High Version 2 (High ATP). It counts as biochemical. A digest of the protocol: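 At room temperature, enzyme (6 nM, 2× final) was preincubated with compound for 30 min, then 6 mM ATP and 400 μM HDAC5tide (both 2× final) were added for 2 h. ADP formed was measured by ADP-Glo Max (2 h reagent, 1 h detection) using luminescence.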

The structures appear in SMILES notation.

T1 sequence (Q9H0K1 whole entry, species assumed): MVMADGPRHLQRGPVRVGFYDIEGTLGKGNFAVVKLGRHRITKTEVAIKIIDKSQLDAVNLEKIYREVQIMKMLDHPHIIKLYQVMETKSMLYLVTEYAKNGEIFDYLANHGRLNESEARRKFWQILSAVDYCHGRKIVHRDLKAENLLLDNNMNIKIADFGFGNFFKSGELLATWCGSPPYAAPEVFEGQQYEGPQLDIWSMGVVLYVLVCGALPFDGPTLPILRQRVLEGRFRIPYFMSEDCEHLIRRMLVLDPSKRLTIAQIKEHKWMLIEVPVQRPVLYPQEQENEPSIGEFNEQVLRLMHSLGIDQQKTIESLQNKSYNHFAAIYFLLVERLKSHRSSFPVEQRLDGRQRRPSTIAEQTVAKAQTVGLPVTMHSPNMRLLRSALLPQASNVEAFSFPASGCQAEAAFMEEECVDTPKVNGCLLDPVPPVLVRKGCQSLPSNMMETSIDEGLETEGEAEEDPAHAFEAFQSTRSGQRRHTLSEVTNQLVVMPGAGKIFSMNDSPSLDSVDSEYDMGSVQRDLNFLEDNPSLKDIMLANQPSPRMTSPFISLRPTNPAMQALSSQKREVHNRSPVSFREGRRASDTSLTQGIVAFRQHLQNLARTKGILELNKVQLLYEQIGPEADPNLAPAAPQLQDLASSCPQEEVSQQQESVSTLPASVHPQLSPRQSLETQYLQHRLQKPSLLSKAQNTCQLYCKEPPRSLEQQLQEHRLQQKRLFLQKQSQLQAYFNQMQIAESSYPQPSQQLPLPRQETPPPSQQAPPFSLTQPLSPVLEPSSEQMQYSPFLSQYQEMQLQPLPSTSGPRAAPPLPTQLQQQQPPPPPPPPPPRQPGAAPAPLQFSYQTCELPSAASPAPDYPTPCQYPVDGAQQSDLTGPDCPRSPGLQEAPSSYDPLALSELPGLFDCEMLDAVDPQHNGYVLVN

For the compound `CN1CC[C@@H](Oc2cnc(C#N)cc2-c2ccn3nc(NC(=O)C4CC4)cc3c2)C(F)(F)C1` [Example 11, N-[5-[2-cyano-5-[[(4R)-3,3-difluoro-1-methyl-4-piperidyl]oxy]-4-pyridyl]pyrazolo[1,5-a]pyridin-2-yl]cyclopropanecarboxamide], the figures for the IC50 on SIK2 [1] and at SIK2 [2] were 0.0014 µM and 31.6 nM, respectively.

Consider `CC1(C)CNC[C@H](COc2ccc(C#N)cc2-c2ccn3nc(NC(=O)C4CC4)cc3c2)O1` [Example 102, N-[5-[5-cyano-2-[[(2R)-6,6-dimethylmorpholin-2-yl]methoxy]phenyl]pyrazolo[1,5-a]pyridin-2-yl]cyclopropanecarboxamide], for which the IC50 was 0.000413 µM on SIK2 [1] and below 0.838 nM against SIK2 [2].

As for `N#Cc1cc(-c2ccn3nc(NC(=O)C4CC4)cc3c2)c(N2CC(O)C2)cn1` [Example 70, N-[5-[2-cyano-5-(3-hydroxyazetidin-1-yl)-4-pyridyl]pyrazolo[1,5-a]pyridin-2-yl]cyclopropanecarboxamide], the values for the IC50 on SIK2 [1] and against SIK2 [2] were 0.0208 µM and 409 nM, respectively.

As for `Cc1cc(-c2ccn3nc(NC(=O)C4CC4)cc3c2)c(OC[C@H]2C[C@@H](N)C2)cn1` [Example 171, cis-N-[5-[5-[(3-aminocyclobutyl)methoxy]-2-methyl-4-pyridyl]pyrazolo[1,5-a]pyridin-2-yl]cyclopropanecarboxamide], the IC50 on SIK2 [1] was found to be 0.000617 µM; against SIK2 [2], 12.3 nM.

As for `N#Cc1cc(-c2ccn3nc(NC(=O)C4CC4)cc3c2)c(OC[C@@H]2CCN(C3CC3)C2)cn1` [Example 589, N-[5-[2-cyano-5-[[(3R)-1-cyclopropylpyrrolidin-3-yl]methoxy]-4-pyridyl]pyrazolo[1,5-a]pyridin-2-yl]cyclopropanecarboxamide], the values for the IC50 at SIK2 [1] and against SIK2 [2] were 0.00625 µM and 75.9 nM, respectively.

As to `N#Cc1cc(-c2ccn3nc(NC(=O)C4CC4)cc3c2)c(O[C@H]2CCN(Cc3ccccn3)C2)cn1` [Example 109, (S)—N-[5-[2-cyano-5-[(3S)-1-(2-pyridylmethyl)pyrrolidin-3-yl]oxy-4-pyridyl]pyrazolo[1,5-a]pyridin-2-yl]cyclopropanecarboxamide], the IC50 turned out to be 0.00422 µM on SIK2 [1] and 116 nM against SIK2 [2].

Consider `CN1CCC(Oc2cnc(C#N)cc2-c2ccn3nc(NC(=O)C4CC4)cc3c2)(C(F)(F)F)CC1` [Example 10, N-[5-[2-cyano-5-[[1-methyl-4-(trifluoromethyl)-4-piperidyl]oxy]-4-pyridyl]pyrazolo[1,5-a]pyridin-2-yl]cyclopropanecarboxamide], for which the values for the IC50 on SIK2 [1] and at SIK2 [2] were 0.204 µM and 4870 nM, respectively.

Consider `CC#Cc1cc(-c2ccn3nc(NC(=O)C4CC4)cc3c2)c(O[C@H]2CC[C@H](O)CC2)cn1` [Example 185, trans-N-[5-[5-(4-hydroxycyclohexoxy)-2-prop-1-ynyl-4-pyridyl]pyrazolo[1,5-a]pyridin-2-yl]cyclopropanecarboxamide], for which the IC50 is 0.000366 µM on SIK2 [1] and below 0.838 nM at SIK2 [2].

`N#Cc1cc(-c2ccn3nc(NC(=O)C4CC4)cc3c2)c(OC[C@@H](O)C(F)(F)F)cn1` [Example 96, N-[5-[2-cyano-5-[(2R)-3,3,3-trifluoro-2-hydroxy-propoxy]-4-pyridyl]pyrazolo[1,5-a]pyridin-2-yl]cyclopropanecarboxamide]: the IC50 at SIK2 [1] was 0.000912 µM; against SIK2 [2], 16 nM.

Consider `N#Cc1cc(-c2ccn3nc(NC(=O)C4CC4)cc3c2)c(OC[C@H]2CC[C@H](N)CC2)cn1` [Example 586, N-(5-(5-(((1r,4r)-4-aminocyclohexyl)methoxy)-2-cyanopyridin-4-yl)pyrazolo[1,5-a]pyridin-2-yl)cyclopropanecarboxamide], for which the values for the IC50 on SIK2 [1] and against SIK2 [2] were 0.00095 µM and 8.63 nM, respectively.

`N#Cc1cc(-c2ccn3nc(NC(=O)C4CC4)cc3c2)c(OC[C@H]2C[C@H](N)C2)cn1` [Example 591, N-(5-(5-(((1r,3r)-3-aminocyclobutyl)methoxy)-2-cyanopyridin-4-yl)pyrazolo[1,5-a]pyridin-2-yl)cyclopropanecarboxamide]: the IC50 was 0.000647 µM at SIK2 [1] and 7.9 nM on SIK2 [2].

For `C[C@H](O)COc1cnc(C#N)cc1-c1ccn2nc(NC(=O)C3CC3)cc2c1` [Example 63, N-[5-[2-cyano-5-[(2S)-2-hydroxypropoxy]-4-pyridyl]pyrazolo[1,5-a]pyridin-2-yl]cyclopropanecarboxamide], the results for the IC50 at SIK2 [1] and on SIK2 [2] were 0.00426 µM and 78.6 nM, respectively.

Take `N#CCN1CC[C@@H](Oc2cnc(C#N)cc2-c2ccn3nc(NC(=O)C4CC4)cc3c2)C1` [Example 113, (R)—N-[5-[2-cyano-5-[(3R)-1-(cyanomethyl)pyrrolidin-3-yl]oxy-4-pyridyl]pyrazolo[1,5-a]pyridin-2-yl]cyclopropanecarboxamide]: the values for the IC50 on SIK2 [1] and at SIK2 [2] were 0.000393 µM and 2.27 nM, respectively.

Consider `COc1cnccc1-c1ccn2nc(NC(=O)C3CC3)cc2c1` [Example 749, N-[5-(3-methoxy-4-pyridyl)pyrazolo[1,5-a]pyridin-2-yl]cyclopropanecarboxamide], for which the IC50 at SIK2 [1] stood at 0.0179 µM; at SIK2 [2], 821 nM.

On to `N#Cc1cc(-c2ccn3nc(NC(=O)C4CC4)cc3c2)c(O[C@@H]2CCN(CC(F)(F)F)C2)cn1` [Example 110, (R)—N-[5-[2-cyano-5-[(3R)-1-(2,2,2-trifluoroethyl)pyrrolidin-3-yl]oxy-4-pyridyl]pyrazolo[1,5-a]pyridin-2-yl]cyclopropanecarboxamide], for which the IC50 at SIK2 [1] came out at 0.00055 µM; at SIK2 [2], 2.85 nM.

`N#Cc1cc(-c2ccn3nc(NC(=O)C4CC4)cc3c2)c(O[C@H]2CCNC2)cn1` [Example 6, (S)—N-(5-(2-cyano-5-(pyrrolidin-3-yloxy)pyridin-4-yl)pyrazolo[1,5-a]pyridin-2-yl)cyclopropanecarboxamide]: the IC50 turned out to be 0.00149 µM at SIK2 [1] and 11.2 nM against SIK2 [2].

In the case of `Cc1cc(-c2ccn3nc(NC(=O)C4CC4)cc3c2)c(O[C@H]2CC[C@@H](O)C2)cn1` (single isomer, unassigned) [Example 179, cis-N-(5-(5-(((1*S,3*R)-3-hydroxycyclopentyl)oxy)-2-methylpyridin-4-yl)pyrazolo[1,5-a]pyridin-2-yl)cyclopropanecarboxamide], the IC50 on SIK2 [1] came to 0.00308 µM; at SIK2 [2], 52.1 nM.

As to `CN1CC[C@H](COc2cnc(C#N)cc2-c2ccn3nc(NC(=O)C4CC4)cc3c2)C1` [Example 16, (S)—N-(5-(2-cyano-5-((1-methylpyrrolidin-3-yl)methoxy)pyridin-4-yl)pyrazolo[1,5-a]pyridin-2-yl)cyclopropanecarboxamide], the IC50 on SIK2 [1] was 0.00496 µM; against SIK2 [2], 236 nM.

Take `N#Cc1cc(-c2ccn3nc(NC(=O)C4CC4)cc3c2)c(OCc2ccccn2)cn1` [Example 48, N-(5-(2-Cyano-5-(pyridin-2-ylmethoxy)pyridin-4-yl)pyrazolo[1,5-a]pyridin-2-yl)cyclopropanecarboxamide]: the results for the IC50 at SIK2 [1] and on SIK2 [2] were 0.0109 µM and 118 nM, respectively.

Turning to `Cn1ccc(N[C@H]2C[C@@H](COc3cnc(C#N)cc3-c3ccn4nc(NC(=O)C5CC5)cc4c3)C2)n1` [Example 177, cis-N-[5-[2-cyano-5-[[3-[(1-methylpyrazol-3-yl)amino]cyclobutyl]methoxy]-4-pyridyl]pyrazolo[1,5-a]pyridin-2-yl]cyclopropanecarboxamide], the IC50 on SIK2 [1] was found to be 0.00137 µM; against SIK2 [2], 29.3 nM.

On to `N#Cc1cc(-c2ccn3nc(NC(=O)C4CC4)cc3c2)c(OCC23CCC(CC2)C(=O)N3)cn1` [Example 40, N-[5-[2-cyano-5-[(2-oxo-3-azabicyclo[2.2.2]octan-4-yl)methoxy]-4-pyridyl]pyrazolo[1,5-a]pyridin-2-yl]cyclopropanecarboxamide], for which the IC50 on SIK2 [1] came out at 0.0047 µM; against SIK2 [2], 87.6 nM.

With `Cc1cc(-c2ccn3nc(NC(=O)C4CC4)cc3c2)c(OC[C@H]2CC[C@@H](O)CC2)cn1` [Example 148, cis-N-[5-[5-[(4-hydroxycyclohexyl)methoxy]-2-methyl-4-pyridyl]pyrazolo[1,5-a]pyridin-2-yl]cyclopropanecarboxamide], the values for the concentration for half-maximal inhibition (IC50) on SIK2 [1] and on SIK2 [2] were 0.00436 µM and 58.3 nM, respectively.

As to `Cc1cc(-c2ccn3nc(NC(=O)C4CC4)cc3c2)c(O[C@@H]2CCN(C)C2)cn1` [Example 137, N-[5-[2-methyl-5-[(3R)-1-methylpyrrolidin-3-yl]oxy-4-pyridyl]pyrazolo[1,5-a]pyridin-2-yl]cyclopropanecarboxamide], the IC50 on SIK2 [1] was 0.00334 µM; against SIK2 [2], 70 nM.

As for `Cc1cc(-c2ccn3nc(Nc4cc(C)nc(C)n4)cc3c2)c(O[C@H]2CC[C@H](O)CC2)nn1` [Example 488, 4-[4-[2-[(2,6-dimethylpyrimidin-4-yl)amino]pyrazolo[1,5-a]pyridin-5-yl]-6-methyl-pyridazin-3-yl]oxycyclohexanol], the IC50 at SIK2 [1] came out at 0.00294 µM; against SIK2 [2], 116 nM.

In the case of `CN1CCO[C@@H](COc2cnc(C#N)cc2-c2ccn3nc(NC(=O)C4CC4)cc3c2)C1` [Example 36, (R)—N-(5-(2-cyano-5-((4-methylmorpholin-2-yl)methoxy)pyridin-4-yl)pyrazolo[1,5-a]pyridin-2-yl)cyclopropanecarboxamide], the figures for the IC50 on SIK2 [1] and at SIK2 [2] were 0.00321 µM and 20.1 nM, respectively.

For `CN[C@H]1C[C@@H](COc2cnc(C#N)cc2-c2ccn3nc(NC(=O)C4CC4)cc3c2)C1` [Example 98, N-(5-(2-cyano-5-(((1s,3s)-3-(methylamino)cyclobutyl)methoxy)pyridin-4-yl)pyrazolo[1,5-a]pyridin-2-yl)cyclopropanecarboxamide], the IC50 came out at 0.000779 µM on SIK2 [1] and 13.8 nM at SIK2 [2].
